# Laboratory results as given in patent publication US12516095B2, “Peptide hormone analogues” (IP2IPO INNOVATIONS LIMITED, priority 2019, dated 2026).
# Starred links: 1 amine or outer side, 2 acyl side, 3 side chain; linkers in the order of their positions; H or OH if unused. Non-standard residues stand in square brackets, D forms with d. Residues, ends and D or L forms follow the SMILES beside them. Groups on a side chain read outwards from the residue. *: point of attachment. C20 diacid = O=C(O)CCCCCCCCCCCCCCCCCCC(=O)*; C18 diacid = O=C(O)CCCCCCCCCCCCCCCCC(=O)*; γGlu = O=C(O)[C@H](CCC(=O)[*:2])N[*:1]; Aib = CC(C)(N)C(=O)O
# Test: PK measurements for half life assessment in pigs
# Format: in vivo, pig
# Conditions: plasma, single subcutaneous injection, time from tmax to half of Cmax, typically mean of four animals; for half-life: male, large white, pig, sc
# Protocol: Male large white pigs receive a single subcutaneous injection of the test compound at the start of study (0 hours). Repeated blood samples were taken from the pig over the proceeding 168 hours and plasma separated and stored at −20 to −80° C. Plasma concentration of the test compound was quantified using a radioimmunoassay or mass spectrum analysis. Time taken from tmax to half of Cmax was calculated and represents the half-life (t½) of the compound. Typically, the presented t½ is the mean of four separate animals.
Compound,half-life,Half life (male large white pigs)
H-H[Aib]HGTFTSDYSKYLDAKRAQEFIEWLLQSHHQQHESPPPGK([Asn-γGlu-C20 diacid])-OH [Example 647],106 h,–
H-H[Aib]HGTFTSDYSKYLDAKRAQEFIEWLLQSHHQQHESPPPGK([γGlu-C20 diacid])-OH [Example 646],42 h,–
H-H[Aib]HGTFTSDYSKYLDAKRAQEFIEWLLQSHQQHHESPPPGK([γGlu-C20 diacid])-OH [Example 642],109 h,–

# Results, then the compound that gave them:
half-life,Half life (male large white pigs),Compound
103 h,–,CC[C@H](C)[C@H](NC(=O)[C@H](Cc1ccccc1)NC(=O)[C@H](CCC(=O)O)NC(=O)[C@H](CCC(N)=O)NC(=O)[C@H](C)NC(=O)[C@H](CCCNC(=N)N)NC(=O)[C@H](CCCCN)NC(=O)[C@H](C)NC(=O)[C@H](CC(=O)O)NC(=O)[C@H](CC(C)C)NC(=O)[C@H](Cc1ccc(O)cc1)NC(=O)[C@H](CCCCN)NC(=O)[C@H](CO)NC(=O)[C@H](Cc1ccc(O)cc1)NC(=O)[C@H](CC(=O)O)NC(=O)[C@H](CO)NC(=O)[C@@H](NC(=O)[C@H](Cc1ccccc1)NC(=O)[C@@H](NC(=O)CNC(=O)[C@H](Cc1c[nH]cn1)NC(=O)C(C)(C)NC(=O)[C@@H](N)Cc1c[nH]cn1)[C@@H](C)O)[C@@H](C)O)C(=O)N[C@@H](CCC(=O)O)C(=O)N[C@@H](Cc1c[nH]c2ccccc12)C(=O)N[C@@H](CC(C)C)C(=O)N[C@@H](CC(C)C)C(=O)N[C@@H](CCC(N)=O)C(=O)N[C@@H](CO)C(=O)N[C@@H](Cc1c[nH]cn1)C(=O)N[C@@H](CCC(N)=O)C(=O)N[C@@H](CCC(N)=O)C(=O)N[C@@H](Cc1c[nH]cn1)C(=O)N1CCC[C@H]1C(=O)N[C@@H](CO)C(=O)N[C@@H](CO)C(=O)N[C@@H](CO)C(=O)N[C@@H](CO)C(=O)N[C@@H](C)C(=O)N[C@@H](CCCCNC(=O)[C@H](CC(N)=O)NC(=O)CC[C@H](NC(=O)CCCCCCCCCCCCCCCCCCC(=O)O)C(=O)O)C(=O)O [Example 707] (H-H[Aib]HGTFTSDYSKYLDAKRAQEFIEWLLQSHQQHPSSSSAK([Asn-γGlu-C20 diacid])-OH)
105 h,–,CC[C@H](C)[C@H](NC(=O)[C@H](Cc1ccccc1)NC(=O)[C@H](CCC(=O)O)NC(=O)[C@H](CCC(N)=O)NC(=O)[C@H](C)NC(=O)[C@H](CCCNC(=N)N)NC(=O)[C@H](CCCCN)NC(=O)[C@H](C)NC(=O)[C@H](CC(=O)O)NC(=O)[C@H](CC(C)C)NC(=O)[C@H](Cc1ccc(O)cc1)NC(=O)[C@H](CCCCN)NC(=O)[C@H](CO)NC(=O)[C@H](Cc1ccc(O)cc1)NC(=O)[C@H](CC(=O)O)NC(=O)[C@H](CO)NC(=O)[C@@H](NC(=O)[C@H](Cc1ccccc1)NC(=O)[C@@H](NC(=O)CNC(=O)[C@H](Cc1c[nH]cn1)NC(=O)C(C)(C)NC(=O)[C@@H](N)Cc1c[nH]cn1)[C@@H](C)O)[C@@H](C)O)C(=O)N[C@@H](CCC(=O)O)C(=O)N[C@@H](Cc1c[nH]c2ccccc12)C(=O)N[C@@H](CC(C)C)C(=O)N[C@@H](CC(C)C)C(=O)N[C@@H](CCC(N)=O)C(=O)N[C@@H](CO)C(=O)N[C@@H](Cc1c[nH]cn1)C(=O)N[C@@H](CCC(N)=O)C(=O)N[C@@H](CCC(N)=O)C(=O)N[C@@H](Cc1c[nH]cn1)C(=O)N1CCC[C@H]1C(=O)N[C@@H](CO)C(=O)N[C@@H](CO)C(=O)N[C@@H](CO)C(=O)N[C@@H](C)C(=O)N[C@@H](CCCCNC(=O)[C@H](CC(N)=O)NC(=O)CC[C@H](NC(=O)CCCCCCCCCCCCCCCCCCC(=O)O)C(=O)O)C(=O)O [Example 708] (H-H[Aib]HGTFTSDYSKYLDAKRAQEFIEWLLQSHQQHPSSSAK([Asn-γGlu-C20 diacid])-OH)
–,66 h,H-H[Aib]HGTFTSDYSKYLDAKRAQEFIEWLLQSHHQQHESPPPGK([γGlu-C20 diacid])-OH [Example 701]
135 h,–,H-H[Aib]HGTFTSDYSKYLDAKRAQEFIEWLLQSHQHQHESPPPGK([His-Asn-γGlu-C18 diacid])-OH [Example 640]
